Drawing on patent US11046709B2, “Fused 1,4-diazepines as BET bromodomain inhibitors” (THE REGENTS OF THE UNIVERSITY OF MICHIGAN, priority 2017, dated 2021), this text covers IC50 and concentration for 13 molecules.

Molecules are shown by their SMILES.

One series has as its system MDA-MB-231. Kind of series: Cell growth inhibition, 4-day proliferation assay, MDA-MB-231. It is filed as cell-based. The conditions noted are these: Homo sapiens, MDA-MB-231; WST-8 assay, Table 7; read-out: Cell growth inhibition (IC50 (nM)) MDA-MB-231. Put shortly: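 Cells seeded at 3,000-10,000/well, treated with serially diluted compounds 4 days at 37 °C, 5% CO2. Viability by WST-8 (10% v/v, 1-2 h, A450); readings normalized to DMSO-treated cells, IC50 by four-parameter nonlinear regression.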

A short description of series [1]: Plasma exposure after oral gavage in mice, LC-MS/MS. The note with it: mouse, plasma, mice, oral gavage 25 mg/kg. Format: in vivo. How it is done:
For a number of representative compounds in Table 5, their plasma exposures with oral administration in mice via oral gavage were determined by LC-MS/MS, with the data shown in Table 9.

The next series has as its target T1, recombinant BRD4 BD2 (Homo sapiens, UniProt O60885).
T1 construct: for recombinant BRD4 BD1 and BRD4 BD2 proteins
Put plainly: Competitive fluorescence-polarization (FP) binding assay, BRD4 BD2. The conditions noted are these: competitive FP, Table 6; read-out: IC50 as determinined in FP assays BRD4 BD2.

For a further series, the system named is MOLM-13. Kind of series: Cell growth inhibition, 4-day proliferation assay, MOLM-13. Format: cell-based. The note with it: Homo sapiens, MOLM-13, WST-8 assay, Table 7; read-out: Cell growth inhibition (IC50 (nM)) MOLM-13. A general note: Tetrazolium dyes change colour on reduction, which living cells bring about.
The target in another series is T2, recombinant BRD4 BD1 (Homo sapiens, UniProt O60885).
T2 construct: for recombinant BRD4 BD1 and BRD4 BD2 proteins
Put plainly: Competitive fluorescence-polarization (FP) binding assay, BRD4 BD1. The conditions noted are these: competitive FP, Table 6; read-out: IC50 as determinined in FP assays BRD4 BD1. How it is done: Fluorescence Polarization (FP) competitive binding studies were carried out using a FAM labeled fluorescent probe, see, e.g., Cpd. No. 350 of US 2014/0256706, to determine binding affinities of representative Compounds of the Disclosure for recombinant BRD4 BD1 and BRD4 BD2 proteins. Equilibrium dissociation constants (Kd) values of the fluorescent probe to BRD4 BD1 and BD2 proteins were determined from protein saturation experiments by monitoring the total fluorescence polarization of mixtures composed with the fluorescent probe at a fixed concentration and proteins with increasing concentrations up to full saturation. Serial dilutions of testing proteins were mixed with the fluorescent probe to a final volume of 200 μl in the assay buffer (100 mM phosphate buffer, pH=6.5, 0.01% Triton X-100 (Sigma, 282103) being added right before assays). Final fluorescent probe concentration was 1.5 nM for both proteins. Plates were incubated at room temperature for 30 minutes with gentle shaking to assure equilibrium. FP values in millipolarization units (mP) were measured using the Infinite M-1000 plate reader (Tecan U.S., Research Triangle Park, N.C.) in Microfluor 1 96-well, black, round-bottom plates (Thermo Scientific, Waltham, Mass.) at an excitation wavelength of 485 nm and an emission wavelength of 530 nm. Kd values of the fluorescent probe, which were calculated by fitting the sigmoidal dose-dependent FP increases as a function of protein concentrations using Graphpad Prism 6.0 software (Graphpad Software, San Diego, Calif.), are 5.5 and 3.0 nM to BDR4 BD1 and 2, respectively.
The IC50 and Ki values of compounds were determined in a competitive binding experiment. See US 2014/0256706. Mixtures of 10 μl of the tested compounds in assay buffer with 40% Ethylene Glycol and 190 μl of preincubated protein/probe complex solution in the assay buffer (100 mM potassium phosphate, pH 6.5, 0.01% Triton X-100) were added into assay plates which were incubated at room temperature for 30 minutes with gentle shaking. Final concentrations of proteins were 10 and 6 nM in assays for BRD4 BD1 and BD2, respectively. Final probe concentration is 1.5 nM in both assays. Negative controls containing protein/probe complex only (equivalent to 0% inhibition), and positive controls containing only free probes (equivalent to 100% inhibition), were included in each assay plate. FP values were measured as described above. IC50 values were determined by nonlinear regression fitting of the competition curves. Instead of being calculated from IC50 values as described before. Ki values of competitive inhibitors were obtained directly by nonlinear regression fitting as well, based upon the Kd values of the probe to different proteins, and concentrations of the proteins and probes in the competitive assays (US 2014/0256706; Wang, FEBS Lett. 360:111 (1995); Zhang et al., Analytical Biochemistry, 331:138 (2004)).
Representative compounds in Table 5 were evaluated for their binding affinities to BRD4 BD1 and BD2 proteins using the Competitive Fluorescence-Polarization (FP) Assays described in Example 6, with the data included in Table 6.

As to `Cc1c(C#Cc2ccccn2)sc2c1C(c1ccc(Cl)cc1)=N[C@@H](CC(N)=O)c1nnc(C)n1-2` [Compound 109, (S)-2-(4-(4-chlorophenyl)-3,9-dimethyl-2-(pyridin-2-ylethynyl)-6H-thieno[3,2-f][1,2,4]triazolo[4,3-a][1,4]diazepin-6-yl)acetamide], the IC50 stood at 2.57 nM in the series with MDA-MB-231, 282 nM on recombinant BRD4 BD2, 7.2 nM with MOLM-13 and 3.8 nM on recombinant BRD4 BD1. For the same molecule, the concentration at 1 h in series [1] (1 h, read-out: Plasma concentration (ng/mL) 1 h) came out at 2170 ng/mL. Moreover, in series [1] (3 h, read-out: Plasma concentration (ng/mL) 3 h), the concentration at 3 h was determined as 609 ng/mL. Moreover, in series [1] (6 h, read-out: Plasma concentration (ng/mL) 6 h), the concentration at 6 h amounted to 184 ng/mL.
Take `Cc1c(C#Cc2ccc(N)nc2)sc2c1C(c1ccc(Cl)cc1)=N[C@@H](CC(N)=O)c1nnc(C)n1-2` [Compound 121, (S)-2-(2-((6-aminopyridin-3-yl)ethynyl)-4-(4-chlorophenyl)-3,9-dimethyl-6H-thieno[3,2-f][1,2,4]triazolo[4,3-a][1,4]diazepin-6-yl)acetamide]: the IC50 worked out at 21.9 nM with MDA-MB-231, 8.4 nM on recombinant BRD4 BD2, 4.76 nM in the series on MOLM-13 and 10.6 nM on recombinant BRD4 BD1.
For `Cc1c(C#Cc2ccccn2)sc2c1C(c1ccc(Cl)cc1)=N[C@@H](CC(=O)N1CCNCC1)c1nnc(C)n1-2` [Compound 122, (S)-2-(4-(4-chlorophenyl)-3,9-dimethyl-2-(pyridin-2-ylethynyl)-6H-thieno[3,2-f][1,2,4]triazolo[4,3-a][1,4]diazepin-6-yl)-1-(piperazin-1-yl)ethan-1-one] the same measures were 19.4 nM, 34.6 nM, 15.3 nM and 14.2 nM.
For `Cc1c(C#Cc2ccccn2)sc2c1C(c1ccc(Cl)cc1)=N[C@@H](CC(=O)N1CCC(O)CC1)c1nnc(C)n1-2` [Compound 123, (S)-2-(4-(4-chlorophenyl)-3,9-dimethyl-2-(pyridin-2-ylethynyl)-6H-thieno[3,2-f][1,2,4]triazolo[4,3-a][1,4]diazepin-6-yl)-1-(4-hydroxypiperidin-1-yl)ethan-1-one] the same measures were 61.1 nM, 59.4 nM, 71.6 nM and 20.4 nM.
For `Cc1c(C#Cc2ccccn2)sc2c1C(c1ccc(Cl)cc1)=N[C@@H](CC(=O)N1CC3(COC3)C1)c1nnc(C)n1-2` [Compound 124, (S)-2-(4-(4-chlorophenyl)-3,9-dimethyl-2-(pyridin-2-ylethynyl)-6H-thieno[3,2-f][1,2,4]triazolo[4,3-a][1,4]diazepin-6-yl)-1-(2-oxa-6-azaspiro[3.3]heptan-6-yl)ethan-1-one] the same measures were 86.3 nM, 62 nM, 57.4 nM and 10.9 nM.
Consider `Cc1c(C#Cc2ccccn2)sc2c1C(c1ccc(Cl)cc1)=N[C@@H](CC(=O)N1CC(F)(F)C1)c1nnc(C)n1-2` [Compound 127, (S)-2-(4-(4-chlorophenyl)-3,9-dimethyl-2-(pyridin-2-ylethynyl)-6H-thieno[3,2-f][1,2,4]triazolo[4,3-a][1,4]diazepin-6-yl)-1-(3,3-difluoroazetidin-1-yl)ethan-1-one], for which the IC50 in the series with MDA-MB-231 was found to be 47 nM; on recombinant BRD4 BD2, 79 nM; in the series with MOLM-13, 57 nM; at recombinant BRD4 BD1 it was 25.9 nM.
In the case of `CC(=O)NNC(=O)C[C@@H]1N=C(c2ccc(Cl)cc2)c2c(sc(C#Cc3ccccn3)c2C)-n2c(C)nnc21` [Compound 128, (S)—N′-acetyl-2-(4-(4-chlorophenyl)-3,9-dimethyl-2-(pyridin-2-ylethynyl)-6H-thieno[3,2-f][1,2,4]triazolo[4,3-a][1,4]diazepin-6-yl)acetohydrazide], the IC50 in the series with MDA-MB-231 was 202 nM; on recombinant BRD4 BD2, 12.8 nM; in the series with MOLM-13, 42.6 nM; on recombinant BRD4 BD1 it was 21.7 nM.
As to `Cc1c(C#Cc2ccccn2)sc2c1C(c1ccc(Cl)cc1)=N[C@@H](CC(=O)NC1CCN(C)CC1)c1nnc(C)n1-2` [Compound 130, (S)-2-(4-(4-chlorophenyl)-3,9-dimethyl-2-(pyridin-2-ylethynyl)-6H-thieno[3,2-f][1,2,4]triazolo[4,3-a][1,4]diazepin-6-yl)-N-(1-methylpiperidin-4-yl)acetamide], the IC50 with MDA-MB-231 turned out to be 13 nM; on recombinant BRD4 BD2, 19 nM; in the series with MOLM-13, 3.84 nM; on recombinant BRD4 BD1 it was 8.7 nM.
For `Cc1c(C#Cc2ccccn2)sc2c1C(c1ccc(Cl)cc1)=N[C@@H](CC(=O)NC1CCNCC1)c1nnc(C)n1-2` [Compound 131, (S)-2-(4-(4-chlorophenyl)-3,9-dimethyl-2-(pyridin-2-ylethynyl)-6H-thieno[3,2-f][1,2,4]triazolo[4,3-a][1,4]diazepin-6-yl)-N-(piperidin-4-yl)acetamide] the same measures were 243 nM, 26.9 nM, 188 nM and 12.6 nM.
As for `Cc1c(C#Cc2ccccn2)sc2c1C(c1ccc(Cl)cc1)=N[C@@H](CC(=O)N1CCC(F)(F)CC1)c1nnc(C)n1-2` [Compound 132, (S)-2-(4-(4-chlorophenyl)-3,9-dimethyl-2-(pyridin-2-ylethynyl)-6H-thieno[3,2-f][1,2,4]triazolo[4,3-a][1,4]diazepin-6-yl)-1-(4,4-difluoropiperidin-1-yl)ethan-1-one], the half-inhibitory concentration (IC50) in the series with MDA-MB-231 was 91.9 nM; at recombinant BRD4 BD2, 33.5 nM; with MOLM-13 it was 80 to 160 nM; on recombinant BRD4 BD1 it was 22.4 nM.
Take `Cc1nnc(C[C@@H]2N=C(c3ccc(Cl)cc3)c3c(sc(C#Cc4ccccn4)c3C)-n3c(C)nnc32)s1` [Compound 134, (S)-4-(4-chlorophenyl)-3,9-dimethyl-6-((5-methyl-1,3,4-thiadiazol-2-yl)methyl)-2-(pyridin-2-ylethynyl)-6H-thieno[3,2-f][1,2,4]triazolo[4,3-a][1,4]diazepine]: the IC50 stood at 85.2 nM in the series on MDA-MB-231, 59.2 nM on recombinant BRD4 BD2, 11.9 nM in the series with MOLM-13 and 7.88 nM on recombinant BRD4 BD1.
As to `Cc1c(C#Cc2ccccn2)sc2c1C(c1ccc(Cl)cc1)=N[C@@H](Cc1nnc(C(C)C)o1)c1nnc(C)n1-2` [Compound 135, (S)-2-((4-(4-chlorophenyl)-3,9-dimethyl-2-(pyridin-2-ylethynyl)-6H-thieno[3,2-f][1,2,4]triazolo[4,3-a][1,4]diazepin-6-yl)methyl)-5-isopropyl-1,3,4-oxadiazole], the IC50 in the series on MDA-MB-231 amounted to 24.5 nM; on recombinant BRD4 BD2 it was 45 nM; in the series on MOLM-13 it was 13.8 nM; at recombinant BRD4 BD1, 10 nM.
For `Cc1c(C#Cc2ccccn2)sc2c1C(c1ccc(Cl)cc1)=N[C@@H](Cc1nnc(C3CC3)o1)c1nnc(C)n1-2` [Compound 136, (S)-2-((4-(4-chlorophenyl)-3,9-dimethyl-2-(pyridin-2-ylethynyl)-6H-thieno[3,2-f][1,2,4]triazolo[4,3-a][1,4]diazepin-6-yl)methyl)-5-cyclopropyl-1,3,4-oxadiazole] the same measures were 52.1 nM, 60.1 nM, 28.1 nM and 11.3 nM.

The term IC50 denotes the concentration needed to halve the response being measured.
